{
  "source": "patent US20100029654A1",
  "about": "“CARDIOVASCULAR COMPOSITIONS AND USE OF THE SAME FOR THE TREATMENT OF ALZHEIMER'S DISEASE” (MOUNT SINAI SCHOOL OF MEDICINE, priority 2006, published 2010)",
  "key": {"γ-secretase": {"system": "γ-secretase", "set-up": "dose or concentration left out as unconfirmed", "conditions": "primary Tg2576 neuron cultures, 16 hours"}, "α-secretase": {"system": "α-secretase", "set-up": "dose or concentration left out as unconfirmed", "conditions": "primary Tg2576 neuron cultures, 16 hours"}, "[1]": {"system": "primary cortico-hippocampal neuron cultures", "assay": "MTT in primary screening"}, "Aβ1-42 [2]": {"system": "Aβ1-42", "assay": "Aβ1-42 content in conditioned medium of primary cortico-hippocampal neuron cultures from Tg2576 mice (ELISA; primary and secondary dose-response screening)", "type": "cell-based, mouse", "conditions": "for Ab1-42 (% of ctl): drug 100 μM", "outline": "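Primary cortico-hippocampal neurons from embryonic Tg2576 mouse brain were seeded on poly-D-lysine-coated 96-well plates at 1.0×10^5 cells per well in serum-free Neurobasal medium with 2% B27, 0.5 mM L-glutamine and 1% penicillin-streptomycin. For primary screening, duplicate wells received 100 μM drug (1% DMSO final). Vehicle-treated cultures served as controls, and Aβ1-42 in conditioned medium was measured by commercial ELISA.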"}, "[3]": {"assay": "valsartan concentration in blood (serum) by MRM mass spectrometry", "type": "in vivo, mouse", "conditions": "chronically valsartan-treated mice (40 mg/kg)", "excerpt": "A series high throughput studies were initiated to assess and quantify antihypertensive drug levels and related metabolites in Tg 2576 and WT controls following in vivo treatments. […] Presently, using QSTAR (QqTOF) mass spectrometry, which delivers high sensitivity and resolution as well as unparalleled mass accuracy for determination of molecular weights of drugs and related metabolites at femtomole levels, the inventor is proceeding with studies aimed at detecting and eventually quantitating antihypertensive drugs and related metabolites in the brain or CSF. Thus, these technologies will accurate determination of the penetration of the blood brain barrier of candidate Aβ lowering antihypertensives in response to chronic treatments in vivo."}, "β-secretase": {"molecular_target": "β-secretase (Mus musculus, UniProt P56818)", "sequence (P56818 46-501)": "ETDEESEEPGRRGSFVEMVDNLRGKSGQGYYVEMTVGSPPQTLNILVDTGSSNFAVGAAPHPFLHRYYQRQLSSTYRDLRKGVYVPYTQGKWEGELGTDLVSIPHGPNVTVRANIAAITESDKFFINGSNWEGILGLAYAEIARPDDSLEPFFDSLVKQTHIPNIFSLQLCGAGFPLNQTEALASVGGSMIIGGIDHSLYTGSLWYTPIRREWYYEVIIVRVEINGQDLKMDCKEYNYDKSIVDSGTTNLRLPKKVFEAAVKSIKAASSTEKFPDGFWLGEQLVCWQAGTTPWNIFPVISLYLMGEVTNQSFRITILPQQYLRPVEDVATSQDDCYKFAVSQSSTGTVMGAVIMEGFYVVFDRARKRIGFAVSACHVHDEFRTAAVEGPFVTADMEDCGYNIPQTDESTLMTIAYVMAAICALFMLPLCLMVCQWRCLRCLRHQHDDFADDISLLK", "set-up": "dose or concentration left out as unconfirmed", "conditions": "primary Tg2576 neuron cultures, 16 hours"}, "[4]": {"system": "primary cortico-hippocampal neuron cultures", "assay": "lactate dehydrogenase (LDH) activity assay in parallel neuron cultures", "quoted_text": "For in vitro treatments drugs available from “The Spectrum Collection” in stocks of 10 mM in DMSO were applied directly to cultures to the desired concentrations (final 1% DMSO); control primary neuron cultures from Tg2576 embryos were treated with vehicle resulting in a final 1% DMSO.\nCell viability was assessed using a commercial available LDH assay kit according to the manufacture's instruction (Promega)."}, "Tg2576 mice": {"system": "Tg2576 mice", "assay": "Morris water maze test of spatial memory", "type": "in vivo, mouse", "excerpt": "In the MWM assay, experimental animals are placed into a circular water tank and provided with a submerged “escape platform” at a specific location. Appropriate visual cues are located on a wall surrounding the water tank. Through repeated “learning trials”, normal animals typically learn to use the visual cues for spatial navigation and eventually require less time to swim to the platform as reflected by reducing escape latency.\nBehavioral assessment of cognitive function by the Morris water maze test. […] At ˜11 months of age, mice were put into the water maze from 4 different quadrants; spatial memory was assessed by recording the average latency time for the animal to escape to the hidden platform. The behavior analysis was consistently conducted during the last 4 hours of the day portion of the light cycle in an environment with minimal stimuli (e.g., noise, movement, or changes in light or temperature)."}, "Aβ1-42 peptide": {"molecular_target": "T1, Aβ1-42 peptide (Homo sapiens, UniProt P05067)", "T1 construct": "Lyophilized Aβ1-42 peptide was dissolved", "T1 sequence (P05067 672-713 limits assumed)": "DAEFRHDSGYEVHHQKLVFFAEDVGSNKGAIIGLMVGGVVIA", "assay": "Aβ-peptide oligomerization assay in vitro (Western blot, A11 dot blot)", "type": "biochemical", "protocol": "Aβ-peptideoligomerization assay in vitro: Lyophilized Aβ1-42 peptide was dissolved in 1,1,1,3,3,3,-hexafluoro-2-propanol (HFIP, from Sigma), incubated at room temperature for 60 min, aliquoted, vacuum dried and stored at −80° C. Aβ peptide was dissolved in DMSO and diluted into ddH2O to a final concentration of 100 μg/ml. The peptide was then mixed with equal volume of drugs and incubated at 37° C. for 1 day (Klein, W. L. 2002. Neurochemistry International 41:345-352).\nFollowing incubation, samples were centrifuged at 14,000×g for 10 min at 4° C. Supernatants were mixed with 2× SDS sample buffer and separated on a 10-20% Tris-Tricine gradient SDS gel (Invitrogen). The separated peptides were subjected to Western blot using 6E10 antibody (1:1000, Signet, St. Louis). Immunoreactive signals were visualized by using enhanced chemiluminescence detection (Amersham), and quantified densitometrically (Quantity One, Bio-Rad).\nImmunoreactive signals were detected and quantified as described above."}, "Aβ1-42 [5]": {"system": "Aβ1-42", "assay": "Aβ1-42 content in conditioned medium of primary cortico-hippocampal neuron cultures from Tg2576 mice (ELISA; primary and secondary dose-response screening)", "type": "cell-based, mouse"}, "[6]": {"conditions": "Primary Screening, table sorted by Aβ1-40"}, "[7]": {"conditions": "primary screening, table sorted by Aβ1-42"}},
  "note": "“Also recorded” adds a separate entry of the source. Read-outs that look alike come from different tables or passages of the source.",
  "data": [
    {"substance": "N-(1-oxopentyl)-N-[[2-(1H-tetrazol-5-yl) [1,1-biphenyl]-4-yl]methyl]-L-valine [Valsartan]", "values": [
      {"measurement": "γ-secretase activity", "setting": "γ-secretase", "value": "no detectable change"},
      {"measurement": "α-secretase activity", "setting": "α-secretase", "value": "no detectable change"},
      {"measurement": "MTT (% of ctl)", "setting": "[1]; [6]", "value": "67.4 % of ctl"},
      {"measurement": "MTT (% of ctl)", "setting": "[1]; [7]", "value": "67.4 % of ctl"},
      {"measurement": "Ab1-42 (% of ctl)", "setting": "Aβ1-42 [2]; [6]", "value": "42.0 % of ctl"},
      {"measurement": "reducing Aβ1-42", "setting": "Aβ1-42 [2]; primary screening, <85% of ctl", "value": "useful in reducing Aβ1-42"},
      {"measurement": "Ab1-42 (% of ctl)", "setting": "Aβ1-42 [2]; primary screening, Tg2576 neuron cultures, table sorted by Aβ1-42", "value": "42.0 % of ctl"},
      {"measurement": "steady state levels in the blood (serum)", "setting": "[3]", "value": "successfully detected steady state levels"},
      {"measurement": "β-secretase activity", "setting": "β-secretase", "value": "selectively inhibition of β-secretase activity"},
      {"measurement": "LDH (% of ctl)", "setting": "[4]; [6]", "value": "94.1 % of ctl"},
      {"measurement": "LDH (at 5F-5 M)", "setting": "[4]; Table IV", "value": "no change"},
      {"measurement": "LDH at E-5M % of change", "setting": "[4]; drug at E-5M", "value": 13.0, "unit": "%"},
      {"measurement": "LDH (% of ctl)", "setting": "[4]; [7]", "value": "94.1 % of ctl"},
      {"measurement": "escape latency in Morris water maze", "setting": "Tg2576 mice; Tg2576 mice, valsartan 10 and 40 mg/kg/day vs untreated", "value": "significant improvement in escape latency; also recorded: significantly reduced escape latency; also recorded: performed significantly better than untreated mice"},
      {"measurement": "spatial memory performance in Morris water maze", "setting": "Tg2576 mice; WT mice, valsartan 10 or 40 mg/kg/day", "value": "did not significantly influence spatial memory performance; also recorded: failed to influence spatial reference memory performance"},
      {"measurement": "in vitro anti-Aβ oligomerization activity compared with other Aβ-lowering antihypertensives", "setting": "Aβ1-42 peptide", "value": "qualitatively stronger in vitro anti-Aβ oligomerization activity"},
      {"measurement": "Aβ1-42 oligomerization (A11 dot-blot)", "setting": "Aβ1-42 peptide; 24 hours after incubation, vs vehicle", "value": "prevented Aβ1-42 oligomerization"},
      {"measurement": "prevention of oligomerization of Aβ1-42 (and Aβ1-40) into >40 kDa HMW species (Western Blot)", "setting": "Aβ1-42 peptide; valsartan 10 μM, vs vehicle", "value": "> 5", "unit": "fold"},
      {"measurement": "EC50", "setting": "Aβ1-42 [5]; Table IV, dose-response 0.01-100 μM, read-out: EC50 (M): Ab-lowering activity Aβ1-42", "value": "1.79e-05", "unit": "M"},
      {"measurement": "EC50", "setting": "Aβ1-42 [5]; conditioned medium of primary cortico-hippocampal neuron cultures from Tg2576 embryos, 24 hours after treatment, relative to vehicle (1% DMSO) control, read-out: EC50 (molar) Aβ1-42", "value": "1.79e-05", "unit": "M"},
      {"measurement": "EC50", "setting": "Aβ1-42 [5]; secondary dose-response screening 0.01-100 μM, 24 hours, read-out: EC50 (molar) Aβ1-42", "value": "1.79e-05", "unit": "M"}
    ]}
  ]
}
